# In patent US20070066615A1, “Heterocyclic compounds” (BAYER HEATHCARE AG, priority 2003, published 2007):
compound,measurement,value
"O=C(NCC1CN(c2ccc(N3CCCC3=O)cc2)C(=O)CO1)c1ccc(Cl)s1 (stereo not shown) [Example 4, 5-Chloro-N-({5-oxo-4-[4-(2-oxo-1-pyrrolidinyl)phenyl]-2-morpholinyl}methyl)-2-thiophenecarboxamide]",melting point,201 °C (dec.)
